How the values were obtained:
BT-474 = test: Cell viability assay, BT-474; type: cell-based; conditions: Homo sapiens; breast carcinoma cell line BT-474
Procedure: Antitumor activity of the compounds and doxorubicin as a positive control was assessed by using the CellTiter-Blue Cell Viability Assay (Promega, #G8082) or CellTiter-Glow® Luminescent Cell Viability assay (Promega #G7572) according to the manufacturer's instructions. The compounds were tested at 5 or 6 concentrations in half-log increments (highest concentration 30 μM or 100 μM) in duplicate or triplicate well conditions.
Tumor cells were grown at 37° C. in a humidified atmosphere with 5% CO2 in RPMI 1640 or DMEM medium, supplemented with 10% (v/v) fetal calf serum and 50 μg/ml gentamicin for up to 20 passages, and were passaged once or twice weekly. Cells were harvested using TrypLE or PBS buffer containing 1 mM EDTA, and the percentage of viable cells was determined using a CASY Model TI cell counter (OMNI Life Science). Cells were harvested from exponential phase cultures, counted and plated in 96 well flat-bottom microtiter plates at a cell density depending on the cell line's growth rate (4,000-20,000 cells/well depending on the cell line's growth rate, up to 60,000 for hematological cancer cell lines) in RPMI 1640 or DMEM medium supplemented with 10% (v/v) fetal calf serum and 50 μg/ml gentamicin (140 μl/well). […] Viability of cells was quantified by the CellTiter-Blue® cell viability assay (Promega G8081) or CellTiter-Glow® Luminescent Cell Viability assay (Promega #G7572). […]

TIE2 = target: T1, TIE2 (Homo sapiens, UniProt Q02763); test: KINOMEscan competition binding, TIE2
T1 construct: purchased Eurofins (KINOMEscan); host or cells: E. coli BL21-derived host (T7 phage) or HEK-293
T1 sequence (Q02763 23-1124): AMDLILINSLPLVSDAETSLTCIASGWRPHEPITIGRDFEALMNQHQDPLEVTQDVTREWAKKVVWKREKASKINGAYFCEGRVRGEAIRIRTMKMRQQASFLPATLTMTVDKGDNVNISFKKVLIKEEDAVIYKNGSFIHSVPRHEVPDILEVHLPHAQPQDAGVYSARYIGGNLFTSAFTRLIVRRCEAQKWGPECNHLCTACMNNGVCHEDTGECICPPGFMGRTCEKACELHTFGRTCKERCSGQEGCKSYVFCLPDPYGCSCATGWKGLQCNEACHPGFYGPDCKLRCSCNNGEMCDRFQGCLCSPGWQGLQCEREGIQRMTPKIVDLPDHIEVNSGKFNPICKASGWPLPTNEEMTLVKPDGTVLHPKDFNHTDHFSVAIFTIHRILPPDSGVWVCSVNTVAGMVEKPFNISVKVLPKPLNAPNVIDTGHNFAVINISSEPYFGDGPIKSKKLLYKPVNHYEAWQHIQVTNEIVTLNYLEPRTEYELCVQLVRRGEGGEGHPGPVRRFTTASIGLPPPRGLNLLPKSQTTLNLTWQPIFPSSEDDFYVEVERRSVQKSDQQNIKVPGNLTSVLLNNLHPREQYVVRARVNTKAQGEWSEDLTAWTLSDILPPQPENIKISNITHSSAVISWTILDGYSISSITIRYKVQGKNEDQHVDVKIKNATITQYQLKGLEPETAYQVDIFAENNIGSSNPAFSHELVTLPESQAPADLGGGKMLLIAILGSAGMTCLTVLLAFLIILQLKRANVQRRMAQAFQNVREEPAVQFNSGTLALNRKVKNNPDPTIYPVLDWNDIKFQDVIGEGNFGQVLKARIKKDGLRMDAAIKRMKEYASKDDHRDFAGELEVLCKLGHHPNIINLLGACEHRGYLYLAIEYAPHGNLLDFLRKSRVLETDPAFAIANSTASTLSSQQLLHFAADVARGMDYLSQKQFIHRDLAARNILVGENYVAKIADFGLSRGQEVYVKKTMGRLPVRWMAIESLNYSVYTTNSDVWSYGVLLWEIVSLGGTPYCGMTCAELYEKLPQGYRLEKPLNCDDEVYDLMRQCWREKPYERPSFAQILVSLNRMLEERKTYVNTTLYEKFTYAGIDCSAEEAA
Procedure: Selected compounds were screened for kinase inhibition using the KINOMEscan™ assay (Eurofins) which is based on a competition binding assay that quantitatively measures the ability of a compound to compete with an immobilized, active-site directed ligand. The assay was performed by combining three components: DNA-tagged kinase; immobilized ligand; and the test compound. The ability of the test compound to compete with the immobilized ligand was measured via quantitative PCR of the DNA tag.
Kinase-tagged T7 phage strains were prepared in an E. coli host derived from the BL21 strain. E. coli were grown to log-phase and infected with T7 phage and incubated with shaking at 32° C. until lysis. The lysates were centrifuged and filtered to remove cell debris. The remaining kinases were produced in HEK-293 cells and subsequently tagged with DNA for qPCR detection. Streptavidin-coated magnetic beads were treated with biotinylated small molecule ligands for 30 minutes at room temperature to generate affinity resins for kinase assays. […] Kds were determined using an 11-point 3-fold compound dilution series with three DMSO control points. […] The kinase concentration in the eluates was measured by qPCR. […]
Binding constants (Kds) were calculated with a standard dose-response curve using the Hill equation: Response=Background+[Signal−Background/1+(Kd^Hill Slope/Dose^Hill Slope)] […]

pancreatic PDX = test: Cell viability, pancreatic PDX (panel statement); type: cell-based; conditions: Table 19; read-out: IC50, pancreatic PDX growth
Procedure: PDX-derived cell cultures were obtained from tumors explanted from mice and isolated by mechanical and enzymatic dissociation. […] Cells were harvested and seeded in 96-wells plates at a density of 1.25 to 5×10^3 cells/well for cytotoxicity assays. Cells were incubated 48 h at 37° C. prior to addition of test molecules and vehicle (DMSO, 0.1%) at desired final concentrations. Cell viability was assessed before drugs' addition (To) and 5 days after test molecules addition by measuring ATP cell content using CellTiter-Glo® Luminescent Cell Viability Assay (Promega) according to the manufacturer's instructions. Luciferase activity was measured on a luminometer (PerkinElmer® EnVision™). Each concentration of compounds was tested in triplicate.
Viability was calculated as a percentage of ATP value compared to vehicle treated controls.
For PDX primary cell cultures, the tumour tissue was washed with PBS containing antibiotic-antimycotic and non-tumour tissue and necrotic tumour tissues were separated. The tumour tissue was transferred to a new dish and cut into 1˜2 mm^3 fragments, resuspended in RPMI-1640 medium and centrifuged at 1,200 rpm for 6 min at room temperature. The pelleted material was resuspended with 15 mL of Tumour Cell Digestion Solution and incubated at 37° C. for 1 hour with agitation. […]

COc1c(O)ccc2c(=O)c(O)c(-c3ccc(CCCC[P+](c4ccccc4)(c4ccccc4)c4ccccc4)cc3)oc12 [SND190, (4-(4-(3,7-Dihydroxy-8-methoxy-4-oxo-4H1-chromen-2-yl)phenyl)butyl)triphenylphosphonium bromide]
IC50 (BT-474): 1.9 µM | Kd (TIE2): 0.04 µM | IC50 (pancreatic PDX): < 10 µM

From patent publication US20240124503A1, “HETEROAROMATIC PHOSPHONIUM SALTS AND THEIR USE TREATING CANCER” (FLORATEK PHARMA S.A., priority 2021, published 2024)
